PubChem BioAssay (NCI)
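96-well plates; 48 h exposure; 5 concentrations. Endpoints by linear interpolation between flanking doses. Not reached: highest tested concentration assigned. GI50 is the concentration that inhibits growth by half. TGI: total growth inhibition.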

Tests used:
Assay in all cases: growth of human tumour cells (NCI), 48 h
[1] = tested on: 786-0 renal
[2] = tested on: A498 renal
[3] = tested on: A549 NSCLC
[4] = tested on: ACHN renal
[5] = tested on: BT-549 breast
[6] = tested on: CAKI-1 renal
[7] = tested on: CCRF-CEM leukemia
[8] = tested on: COLO 205 colon
[9] = tested on: DU-145 prostate
[10] = tested on: EKVX NSCLC
[11] = tested on: HCC-2998 colon
[12] = tested on: HCT-116 colon
[13] = tested on: HCT-15 colon
[14] = tested on: HL-60(TB) leukemia
[15] = tested on: HOP-62 NSCLC
[16] = tested on: HS 578T breast
[17] = tested on: HT29 colon
[18] = tested on: IGROV1 ovarian
[19] = tested on: KM12 colon
[20] = tested on: LOX IMVI melanoma
[21] = tested on: M14 melanoma
[22] = tested on: MALME-3M melanoma
[23] = tested on: MCF7 breast
[24] = tested on: MDA-MB-231 breast
[25] = tested on: MDA-MB-435
[26] = tested on: MOLT-4 leukemia
[27] = tested on: NCI-H226 lung
[28] = tested on: NCI-H23 lung
[29] = tested on: NCI-H460 lung
[30] = tested on: NCI/ADR-RES ovarian
[31] = tested on: OVCAR-3 ovarian
[32] = tested on: OVCAR-4 ovarian
[33] = tested on: OVCAR-5 ovarian
[34] = tested on: OVCAR-8 ovarian
[35] = tested on: PC-3 prostate
[36] = tested on: RPMI-8226 leukemia
[37] = tested on: RXF 393 renal
[38] = tested on: SF-268 CNS
[39] = tested on: SF-295 CNS
[40] = tested on: SF-539 CNS
[41] = tested on: SK-MEL-28 melanoma
[42] = tested on: SK-MEL-5 melanoma
[43] = tested on: SK-OV-3 ovarian
[44] = tested on: SN12C renal
[45] = tested on: SNB-19 CNS
[46] = tested on: SNB-75 CNS
[47] = tested on: SR leukemia
[48] = tested on: SW-620 colon
[49] = tested on: T-47D breast
[50] = tested on: TK-10 renal
[51] = tested on: U251 CNS
[52] = tested on: UACC-257 melanoma
[53] = tested on: UACC-62 melanoma
[54] = tested on: UO-31 renal
[55] = tested on: HOP-92 NSCLC
[56] = tested on: NCI-H522 lung
[57] = tested on: SK-MEL-2 melanoma

`COc1ccc(C2CC(c3ccc(Nc4ccnc5cc(Cl)ccc45)cc3)=NN2C=O)cc1` (stereo not drawn) was tested, and the GI50 [1] was 32 µM, the TGI [1] was over 100 µM and the GI50 [2] was over 100 µM. It also gave a TGI [2] of over 100 µM, a GI50 [3] of 50.3 µM and a TGI [3] of over 100 µM. The GI50 [4] was 7.02 µM, the TGI [4] was over 100 µM and the GI50 [5] was 10.9 µM. The TGI [5] was 36.6 µM, the GI50 [6] was over 100 µM and the TGI [6] was over 100 µM. For the same compound, the GI50 [7] was 2.71 µM, the TGI [7] was over 100 µM and the GI50 [8] was 3.56 µM. The TGI [8] was over 100 µM, the GI50 [9] was 38 µM and the TGI [9] was over 100 µM. It also gave a GI50 [10] of over 100 µM, a TGI [10] of over 100 µM and a GI50 [11] of 18.1 µM. For the same compound, the TGI [11] was over 100 µM, the GI50 [12] was 9.97 µM and the TGI [12] was over 100 µM. The GI50 [13] was 2.97 µM, the TGI [13] was over 100 µM and the GI50 [14] was 2.23 µM. For the same compound, the TGI [14] was 5.16 µM, the GI50 [15] was 43.7 µM and the TGI [15] was over 100 µM. It also gave a GI50 [16] of over 100 µM, a TGI [16] of over 100 µM and a GI50 [17] of 3.81 µM. The TGI [17] was over 100 µM, the GI50 [18] was 43.1 µM and the TGI [18] was over 100 µM. For the same compound, the GI50 [19] was 16.5 µM, the TGI [19] was over 100 µM and the GI50 [20] was 2.32 µM. It also gave a TGI [20] of 15.6 µM, a GI50 [21] of 7.67 µM and a TGI [21] of over 100 µM. The GI50 [22] was over 100 µM, the TGI [22] was over 100 µM and the GI50 [23] was 8.78 µM. It also gave a TGI [23] of over 100 µM, a GI50 [24] of 20.1 µM and a TGI [24] of over 100 µM. For the same compound, the GI50 [25] was 1.72 µM, the TGI [25] was 5.22 µM and the GI50 [26] was 2.55 µM. For the same compound, the TGI [26] was 16.7 µM, the GI50 [27] was over 100 µM and the TGI [27] was over 100 µM. For the same compound, the GI50 [28] was 50.6 µM, the TGI [28] was over 100 µM and the GI50 [29] was over 100 µM. It also gave a TGI [29] of over 100 µM, a GI50 [30] of 7.05 µM and a TGI [30] of over 100 µM. It also gave a GI50 [31] of 14.5 µM, a TGI [31] of 55.4 µM and a GI50 [32] of 13.4 µM. For the same compound, the TGI [32] was over 100 µM, the GI50 [33] was over 100 µM and the TGI [33] was over 100 µM. It also gave a GI50 [34] of 69.8 µM, a TGI [34] of over 100 µM and a GI50 [35] of 9.43 µM. It also gave a TGI [35] of over 100 µM, a GI50 [36] of 2.71 µM and a TGI [36] of 48.6 µM. The GI50 [37] was 11.6 µM, the TGI [37] was over 100 µM and the GI50 [38] was over 100 µM. The TGI [38] was over 100 µM, the GI50 [39] was 24.8 µM and the TGI [39] was over 100 µM. It also gave a GI50 [40] of over 100 µM, a TGI [40] of over 100 µM and a GI50 [41] of 20.9 µM. For the same compound, the TGI [41] was 90.9 µM, the GI50 [42] was 0.617 µM and the TGI [42] was 43.2 µM. It also gave a GI50 [43] of over 100 µM, a TGI [43] of over 100 µM and a GI50 [44] of 12.6 µM. For the same compound, the TGI [44] was over 100 µM, the GI50 [45] was 56.5 µM and the TGI [45] was over 100 µM. It also gave a GI50 [46] of over 100 µM, a TGI [46] of over 100 µM and a GI50 [47] of 2.83 µM. For the same compound, the TGI [47] was 6.64 µM, the GI50 [48] was 35.8 µM and the TGI [48] was over 100 µM. For the same compound, the GI50 [49] was 1.38 µM, the TGI [49] was 15 µM and the GI50 [50] was 20.9 µM. The TGI [50] was 48.2 µM, the GI50 [51] was 15 µM and the TGI [51] was over 100 µM. The GI50 [52] was 43.9 µM, the TGI [52] was over 100 µM and the GI50 [53] was 5.99 µM. It also gave a TGI [53] of 49.8 µM, a GI50 [54] of 19.7 µM and a TGI [54] of over 100 µM.

Work on `CC(=O)CC/C=C(\C)[C@H](O)[C@H](C)C(=O)O[C@H]1C[C@H](C)C=C2C=C[C@@]3(C)O[C@@H](O)CC(=O)[C@]3(C)[C@H]21` yielded a GI50 [1] of 0.43 µM, a TGI [1] of 3.29 µM and a GI50 [2] of 2.55 µM. It also gave a TGI [2] of 7.95 µM, a GI50 [3] of 1.24 µM and a TGI [3] of 9.17 µM. The GI50 [4] was 0.339 µM, the TGI [4] was 2 µM and the GI50 [5] was 0.781 µM. For the same compound, the TGI [5] was 3.76 µM, the GI50 [7] was 0.514 µM and the TGI [7] was 4.83 µM. For the same compound, the GI50 [8] was 0.425 µM, the TGI [8] was 2.03 µM and the GI50 [9] was 0.332 µM. It also gave a TGI [9] of 4.16 µM, a GI50 [10] of 0.877 µM and a TGI [10] of 4.64 µM. For the same compound, the GI50 [11] was 0.394 µM, the TGI [11] was 1.96 µM and the GI50 [12] was 0.307 µM. The TGI [12] was 1.89 µM, the GI50 [13] was 0.545 µM and the TGI [13] was 7.95 µM. The GI50 [14] was 1.42 µM, the TGI [14] was 4.22 µM and the GI50 [15] was 0.492 µM. It also gave a TGI [15] of 3.63 µM, a GI50 [55] of 1.53 µM and a TGI [55] of 7.06 µM. For the same compound, the GI50 [16] was 0.492 µM, the TGI [16] was 4.48 µM and the GI50 [17] was 0.264 µM. It also gave a TGI [17] of 1.37 µM, a GI50 [18] of 0.42 µM and a TGI [18] of 3.42 µM. It also gave a GI50 [19] of 0.308 µM, a TGI [19] of 2.54 µM and a GI50 [20] of 0.279 µM. The TGI [20] was 1.69 µM, the GI50 [21] was 0.906 µM and the TGI [21] was 2.38 µM. It also gave a GI50 [22] of 0.588 µM, a TGI [22] of 2.7 µM and a GI50 [23] of 0.5 µM. The TGI [23] was 6.19 µM, the GI50 [24] was 0.558 µM and the TGI [24] was 3.07 µM. For the same compound, the GI50 [25] was 0.508 µM, the TGI [25] was 2.09 µM and the GI50 [27] was 0.423 µM. For the same compound, the TGI [27] was 4.6 µM, the GI50 [28] was 0.384 µM and the TGI [28] was 2.44 µM. It also gave a GI50 [29] of 0.379 µM, a TGI [29] of 7.38 µM and a GI50 [56] of 0.566 µM. The TGI [56] was 4.19 µM, the GI50 [30] was 1.44 µM and the TGI [30] was 11.7 µM. The GI50 [31] was 0.614 µM, the TGI [31] was 3.52 µM and the GI50 [32] was 1.78 µM. It also gave a TGI [32] of 6.05 µM, a GI50 [33] of 1.04 µM and a TGI [33] of 6.62 µM. The GI50 [34] was 0.425 µM, the TGI [34] was 6 µM and the GI50 [35] was 0.61 µM. It also gave a TGI [35] of 3.31 µM, a GI50 [36] of 0.308 µM and a TGI [36] of 2.25 µM. For the same compound, the GI50 [37] was 0.233 µM, the TGI [37] was 0.867 µM and the GI50 [38] was 0.612 µM. The TGI [38] was 5.63 µM, the GI50 [39] was 0.746 µM and the TGI [39] was 6.51 µM. It also gave a GI50 [40] of 0.366 µM, a TGI [40] of 2.37 µM and a GI50 [57] of 0.419 µM. For the same compound, the TGI [57] was 1.91 µM, the GI50 [41] was 0.364 µM and the TGI [41] was 2.18 µM. It also gave a GI50 [42] of 0.598 µM, a TGI [42] of 2.08 µM and a GI50 [43] of 1.26 µM. For the same compound, the TGI [43] was 6.42 µM, the GI50 [44] was 0.324 µM and the TGI [44] was 2.43 µM. The GI50 [45] was 0.331 µM, the TGI [45] was 2.49 µM and the GI50 [46] was 0.686 µM. For the same compound, the TGI [46] was 2.61 µM, the GI50 [47] was 0.362 µM and the TGI [47] was 12 µM. For the same compound, the GI50 [48] was 0.449 µM, the TGI [48] was 9.03 µM and the GI50 [49] was 0.309 µM. For the same compound, the TGI [49] was 2.54 µM, the GI50 [50] was 0.942 µM and the TGI [50] was 5.5 µM. The GI50 [51] was 0.384 µM, the TGI [51] was 2.8 µM and the GI50 [52] was 0.589 µM. For the same compound, the TGI [52] was 4.48 µM, the GI50 [53] was 0.618 µM and the TGI [53] was 2.14 µM. For the same compound, the GI50 [54] was 0.383 µM and the TGI [54] was 2.9 µM.
